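Grown in 96-well plates, cells were treated for 48 hours with each compound at five concentrations. Insufficient inhibition: endpoint recorded as highest concentration tested. TGI denotes the concentration required for complete inhibition of growth.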
Key:
Assay in all cases: inhibition of tumour cell growth, NCI panel, 48 h
SR leukemia = system: SR leukemia
SN12C renal = system: SN12C renal
MDA-N = system: MDA-N
NCI-H460 lung = system: NCI-H460 lung
COLO 205 colon = system: COLO 205 colon
OVCAR-4 ovarian = system: OVCAR-4 ovarian
K-562 leukemia = system: K-562 leukemia
MOLT-4 leukemia = system: MOLT-4 leukemia
PC-3 prostate = system: PC-3 prostate
SK-MEL-5 melanoma = system: SK-MEL-5 melanoma
SW-620 colon = system: SW-620 colon
NCI/ADR-RES ovarian = system: NCI/ADR-RES ovarian
HT29 colon = system: HT29 colon
TK-10 renal = system: TK-10 renal
HCT-116 colon = system: HCT-116 colon
UO-31 renal = system: UO-31 renal
MDA-MB-231 breast = system: MDA-MB-231 breast
NCI-H522 lung = system: NCI-H522 lung
DU-145 prostate = system: DU-145 prostate
MCF7 breast = system: MCF7 breast
SK-MEL-2 melanoma = system: SK-MEL-2 melanoma
M14 melanoma = system: M14 melanoma
NCI-H23 lung = system: NCI-H23 lung
IGROV1 ovarian = system: IGROV1 ovarian
U251 CNS = system: U251 CNS
786-0 renal = system: 786-0 renal
ACHN renal = system: ACHN renal
SK-OV-3 ovarian = system: SK-OV-3 ovarian
SK-MEL-28 melanoma = system: SK-MEL-28 melanoma
RPMI-8226 leukemia = system: RPMI-8226 leukemia
BT-549 breast = system: BT-549 breast
LOX IMVI melanoma = system: LOX IMVI melanoma
SF-268 CNS = system: SF-268 CNS
HS 578T breast = system: HS 578T breast
A549 NSCLC = system: A549 NSCLC
OVCAR-5 ovarian = system: OVCAR-5 ovarian
HOP-92 NSCLC = system: HOP-92 NSCLC
UACC-257 melanoma = system: UACC-257 melanoma
SF-295 CNS = system: SF-295 CNS
CCRF-CEM leukemia = system: CCRF-CEM leukemia
HCT-15 colon = system: HCT-15 colon
OVCAR-8 ovarian = system: OVCAR-8 ovarian
HL-60(TB) leukemia = system: HL-60(TB) leukemia
T-47D breast = system: T-47D breast
KM12 colon = system: KM12 colon
SNB-19 CNS = system: SNB-19 CNS
SF-539 CNS = system: SF-539 CNS
MALME-3M melanoma = system: MALME-3M melanoma
UACC-62 melanoma = system: UACC-62 melanoma
RXF 393 renal = system: RXF 393 renal
SNB-75 CNS = system: SNB-75 CNS
HOP-62 NSCLC = system: HOP-62 NSCLC
MDA-MB-435 = system: MDA-MB-435
NCI-H226 lung = system: NCI-H226 lung
OVCAR-3 ovarian = system: OVCAR-3 ovarian
EKVX NSCLC = system: EKVX NSCLC
HCC-2998 colon = system: HCC-2998 colon
CAKI-1 renal = system: CAKI-1 renal

Measured: TGI

Cc1ccc(S(=O)(=O)NC(=O)NC(C(=O)O)C(C)C)cc1 (centres undefined)
not listed: MDA-MB-435 | NCI-H226 lung | OVCAR-3 ovarian | EKVX NSCLC | HCC-2998 colon | CAKI-1 renal
> 100 µM: all other assays above

Cc1ccc(-n2c(=O)c3nn4c(=O)n(-c5ccc(C)cc5)c(=O)c4nn3c2=O)cc1
not listed: MDA-MB-231 breast
> 100 µM: all other assays above
